Experimental data taken from patent publication US20260345723A1, “Treatments for Opioid-Induced Respiratory Depression” (priority 2023, published 2026).
Read-outs that look alike come from different tables or passages of the source.

Legend:
[1] = type: in vivo, Rhesus macaque (Macaca mulatta)
Procedure: In non-human primates (rhesus monkeys) RAP-103 was dosed once on Day 1 by intravenous bolus injection at 1 mg/kg and plasma levels determined. […] Drug in plasma after a single IV dose (1 mg/Kg) was still measurable at anticipated therapeutic levels 96 hrs. post-dose in non-human primates as shown in FIG. 10B.

[2] = type: in vivo, rodents and non-human primates (Rhesus macaque)
CCR2 [3] = conditions: CCR2, monocyte chemotaxis; read-out: half maximal inhibitory concentration IC50; cited from earlier work
[4] = tested on: sucrose self-administration; assay: Sucrose self-administration (FR and PR); type: in vivo, rat (male Sprague Dawley); conditions: RAP-103 1 mg/kg IP; P>0.05 vs saline
Excerpt: Adult male Sprague Dawley (226-275 g) were purchased from Taconic Laboratories and maintained on a 12-hour/12-hour light/dark cycle with the lights off at 9:30 a.m. in a temperature- and humidity-controlled animal care facility. For the duration of the experiment, rats were housed two per cage and given unrestricted access to food and water at all times when in the home cage.
Progressive ratio (PR) schedules of drug delivery are used to determine the ‘motivational’ state of an animal and drug reinforcing efficacy. A progressive ratio (PR) schedule requires the subject to perform an increasing number of lever presses for the next successive presentation of a reinforcer (e.g., heroin or sucrose). […] BP is a dependent measure used to quantify the degree to which the subject will work to get the next administration of the drug which serves as a reinforcer in the self-administration paradigm. […]
Subjects were given access to self-administer sucrose pellets for 12-14 d for 2 h each day. […] All responses were recorded using the Med-Associates software. […]
Respiratory depression data were analyzed by two-way ANOVA (RAP-103 pretreatment×morphine treatment) followed by a Bonferroni's multiple comparison test. Physical dependence data were analyzed by a Student's t-test. […] SA PR challenge data were analyzed by a Student's t-test. […]

[5] = tested on: tyrosine hydroxylase (TH); assay: TH protein levels in mesolimbic pathway, morphine abstinence (Western blot); type: in vivo, rat; conditions: RAP-103 + morphine, vs drug-naïve (P<0.05) and morphine only (P<0.01)
Procedure: For 10 d, rats were given two injections during the dark cycle. One injection (RAP-103 [1 mg/kg] or saline) was delivered IP, and 5 min later the second injection (morphine [5 mg/kg] or saline) was given SC. Brain tissue was collected 24 h after the last morphine or saline injection for protein analysis of chemokine and opioid markers in the ventral tegmental area (VTA), nucleus accumbens (NAC) and prefrontal cortex (PFC).
For immunoblotting experiments, tissue lysates were obtained using RIPA buffer, and were then homogenized. Samples were centrifuged for 15 minutes at 12,000 g. Supernatant were transferred to new tubes. […] Immunoreactive bands were quantified by Image Studio (Licor Ver 2.0) and normalized to the bands of GAPDH. […]
Respiratory depression data were analyzed by two-way ANOVA (RAP-103 pretreatment×morphine treatment) followed by a Bonferroni's multiple comparison test. Physical dependence data were analyzed by a Student's t-test. Self-administration (SA) time-course data for heroin and sucrose were analyzed by two-way ANOVA (RAP-103 treatment x day) followed by a Bonferroni's multiple comparison test. SA PR challenge data were analyzed by a Student's t-test. Protein and mRNA data were analyzed by two-way ANOVA (RAP-103 pretreatment x morphine treatment) followed by a Newman-Keuls post-hoc analysis. […]

CXCR4 = conditions: cited from earlier work
CCR8 = conditions: cited from earlier work
[6] = type: in vivo, rats and guinea pigs
pain pathways = conditions: cited from earlier work
neuropathic pain = conditions: previous research; cited from earlier work
CCR2 [7] = tested on: CCR2
[8] = tested on: morphine-induced respiratory depression
[9] = RAP-103 only vs drug-naïve, P>0.05
[10] = RAP-103 1, 3 mg/kg IP in morphine-naïve rats vs saline, P>0.05
[11] = RAP-103 1 or 3 mg/kg IP 30 min before morphine 5 mg/kg SC, 60 min

In the case of D-Thr-D-Thr-D-Asn-D-Tyr-D-Thr [RAP-103], the “AUC 0-T, male vs female” value ([1]; intravenous bolus 1 mg/kg) is reported as “comparable in male and female monkeys”, the “Cmax, male vs female” value ([1]; intravenous bolus 1 mg/kg) is reported as “comparable in male and female monkeys” and the absolute bioavailability ([1]; males, 1 mg/kg, rhesus monkeys) is reported as 89%. For the same substance, the oral bioavailability ([1]; non-human primates (Rhesus macaque), 1 mg/kg) was 88%, the oral bioavailability ([1]; primates, 1 mg/kg) was greater than 88% and the “time drug in plasma still measurable at anticipated therapeutic levels” value ([1]; single IV dose 1 mg/kg, post-dose) was no less than 96 h. The “brain entry, oral compared to IV dosing” value ([2]; FIG. 10A) was “preferentially entered the brain by oral compared to IV dosing”, the brain entry ([2]; oral and IV dosing, rodents and non-human primates) was “quickly entered the brain” and the IC50 (CCR2 [3]) was 4.2 pM. For the same substance, the “sucrose PR breakpoints” value [4] was “not significantly different”, the “sucrose-taking (FR-1 SA)” value [4] was “not significantly different” and the “GFAP mRNA, PFC” value (GFAP mRNA; RAP-103/morphine exposure, P>0.05) was “significant changes in GFAP or IBA1 were not detected”. The “GFAP gene expression, NAC” value (GFAP mRNA; RAP-103 pretreatment + morphine, P<0.05) was “normalized the augmentation in GFAP gene expression”, the “GFAP mRNA levels, VTA” value (GFAP mRNA; RAP-103 pretreatment, morphine-naïve and morphine-treated rats, vs drug-naïve, P<0.05) was “significantly reduced GFAP mRNA levels” and the “TH protein levels, PFC” value [5] was “significantly elevated”. The “inhibition of chemokine ligand binding, CXCR4” value (CXCR4) was “at least partially inhibits”, the “inhibition of chemokine ligand binding, CCR8” value (CCR8) was “at least partially inhibits” and the “persistence at therapeutic levels in brain” value ([6]; IV or oral gavage, rats and guinea pigs (FIG. 10A)) was “at least 24 hrs”. For the same substance, the “brain entry compared to plasma levels” value ([6]; in vivo) was “preferentially enters the brain”, the monocyte infiltration (pain pathways) was “reduces” and the spinal microglial activation (pain pathways) was “reduces”. For the same substance, the mechanical allodynia (neuropathic pain) was “attenuate”, the thermal hyperalgesia (neuropathic pain) was “attenuate” and the “CCR2 protein levels, VTA” value (CCR2 [7]; RAP-103 1 mg/kg IP + morphine) was “did not alter morphine enhancement of CCR2”. The “CCR2 protein levels, PFC” value (CCR2 [7]; RAP-103 by itself vs drug-naïve, P<0.05) was “reduction in CCR2 protein levels”, the “CCR2 protein levels, NAC” value (CCR2 [7]; [9]) was “did not display significantly different levels” and the “CCR2 protein levels, VTA” value (CCR2 [7]; [9]) was “not significantly different”. For the same substance, the “CCR2 protein levels, NAC” value (CCR2 [7]; RAP-103 pretreatment 1 mg/kg IP + morphine, P<0.01) was “normalized morphine-induced deficits in CCR2 levels”, the respiratory rate ([8]; RAP-103 1 mg/kg IP before morphine 5 mg/kg SC) was “abolished” and the cumulative respiratory rate ([8]; RAP-103 3 mg/kg IP before morphine 5 mg/kg SC, 60 min, P<0.01) was “normalized the morphine-induced increase in respiratory rate”. For the same substance, the “SpO2, RAP-103 by itself” value [8, 10] was “did not produce effects on SpO2”, the “respiratory rate, RAP-103 by itself” value [8, 10] was “did not produce effects on respiratory rate” and the “oxygen saturation (FIGS. 1A-1B)” value [8, 11] was “prevented the deficit in oxygen saturation”. The “respiratory rate (FIGS. 2A-2B)” value [8, 11] was “prevented the increase in respiratory rate”.
